Patent US10780047B2, “Method of providing birth control” (The Population Council, Inc., priority 2019, dated 2020)
≈ marks a conversion by molar mass, not a printed value. Like-named read-outs stand apart in the source and are kept apart here.

What was measured:
mouse = test: In vivo mouse micronucleus test
[1] = Residual amount of drug in vaginal systems used in clinical trials over 13 product-use cycles; type: in vivo, human; details: based on residual drug in used systems
Protocol: Although the vaginal system provides SA and EE in the approximate rates described above, SA and EE can diffuse out of the vaginal system with release rates that vary over time. In certain embodiments, the daily in vitro release rates of SA and EE are higher during each initial 24-48 hours of use in a given product-use cycle, achieving a somewhat lower steady-state with continued use over subsequent days in each product-use cycle. Based on the residual amount of drug in vaginal systems used in clinical trials over 13 product-use cycles, a total of approximately 41.3 mg of SA and approximately 3.4 mg of EE are released over this period.

Salmonella = test: Ames/Salmonella reverse mutation assay; type: cell-based
CYP enzymes = test: In vitro CYP inhibition/induction studies; type: in vitro ADME; details: at the therapeutic dose
human serum proteins = test: Serum protein binding; type: in vitro ADME
rats [2] = test: 2-year carcinogenicity study in rats with subdermal implants; type: in vivo, rat; details: subdermal implants releasing 40, 100, and 200 μg per day, 2 years
Text: (§1) Long-term continuous administration of natural and synthetic estrogens in certain animal species increases the frequency of carcinomas of the breast, uterus, cervix, vagina, testis, and liver.

rats [3] = test: Return to fertility study in rats with subdermal implants; type: in vivo, rat
Protocol: A return to fertility study was conducted with segesterone acetate in rats, using subdermal implants releasing a dose approximately 25 times the anticipated daily vaginal human dose (based on body surface area).

clinical = details: human, in vivo
physchem = details: water
QTc interval = test: Phase 1 thorough QTc study; type: in vivo, human; details: single intravenous bolus dose giving 4.5-fold the therapeutic serum concentrations; 44 healthy adult female subjects
Protocol: The effect of SA on the QTc interval was evaluated in a Phase 1 randomized, placebo and positive controlled, double-blind, single-dose, three-period, crossover thorough QTc study in 44 healthy adult female subjects.

[4] = Pharmacokinetics of the vaginal system in 39 women over up to 13 product-use cycles; type: in vivo, human; parameters: AUC(0-t) / AUC0-21day / AUC0-1day: concentration or dose not given beside the values; details: vaginal administration; for Cavg / AUC(0-t) / Cmax / AUC0-1day / AUC0-21day: mean (SD)
Protocol: The pharmacokinetics (PK) of the vaginal system described herein were determined in 39 women who used the system for up to 13 product-use cycles. […] Over subsequent product-use cycles, the peak serum concentrations of SA and EE declined. Serum concentration-time profiles of SA and EE for product-pse cycles 1, 3, and 13 of system use are provided in FIG. 1 and FIG. 2 with PK parameters summarized in Table 3 and Table 4.

[5] = biological target: cytochrome P450 (CYP) 3A4 isoenzyme (Homo sapiens, UniProt P08684)
Text: These are present as free metabolites and as sulfate and glucuronide conjugates.

[6] = biological target: T1, sex hormone-binding globulin (SHBG) (Homo sapiens, UniProt P04278); test: Binding affinity for SHBG
T1 sequence (P04278 30-402): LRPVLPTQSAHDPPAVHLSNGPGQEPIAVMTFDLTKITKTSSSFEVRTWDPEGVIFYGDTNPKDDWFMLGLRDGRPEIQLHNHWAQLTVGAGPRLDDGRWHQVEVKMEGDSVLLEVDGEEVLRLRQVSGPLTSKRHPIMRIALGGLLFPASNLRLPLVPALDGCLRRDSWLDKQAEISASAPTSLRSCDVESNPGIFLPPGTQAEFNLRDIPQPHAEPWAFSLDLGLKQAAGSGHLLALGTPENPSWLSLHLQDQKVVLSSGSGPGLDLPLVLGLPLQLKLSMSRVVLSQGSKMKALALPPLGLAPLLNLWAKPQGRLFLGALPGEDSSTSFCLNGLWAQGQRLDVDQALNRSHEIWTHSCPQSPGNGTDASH

[7] = Drug-drug interaction study with vaginal miconazole formulations; type: in vivo, human; details: for overall increase in exposure: concurrent 1 day or 3-day oil-based miconazole suppository; for change in exposure from the vaginal system: concurrent water-based vaginal miconazole cream
Text: However, the use of either the 1 day or the 3-day oil-based miconazole suppository was associated with an overall increase in exposure up to 67% for EE and 32% for SA. Considering the potential long-term effect on vaginal system performance, concurrent use of oil-based vaginal suppositories should not occur with the system's use. If there is a need to treat a vaginal condition, water-based vaginal cream or oral therapy may be used concurrently with the vaginal system.

mice = test: 2-year intravaginal carcinogenicity study in mice; type: in vivo, mouse; details: intravaginal gel, 2 years
Text: as §1

[8] = system: Chinese hamster ovary cells; test: Chromosomal aberration assay; type: cell-based
Solubility = details: descriptive term
[9] = co-administration of atorvastatin or rosuvastatin and certain CHCs containing EE; cited from earlier work
[10] = in vivo
serum albumin = serum albumin (Homo sapiens, UniProt P02768); test: Serum albumin binding; type: in vitro ADME; details: not specifically bound
Chain of serum albumin (P02768 25-609): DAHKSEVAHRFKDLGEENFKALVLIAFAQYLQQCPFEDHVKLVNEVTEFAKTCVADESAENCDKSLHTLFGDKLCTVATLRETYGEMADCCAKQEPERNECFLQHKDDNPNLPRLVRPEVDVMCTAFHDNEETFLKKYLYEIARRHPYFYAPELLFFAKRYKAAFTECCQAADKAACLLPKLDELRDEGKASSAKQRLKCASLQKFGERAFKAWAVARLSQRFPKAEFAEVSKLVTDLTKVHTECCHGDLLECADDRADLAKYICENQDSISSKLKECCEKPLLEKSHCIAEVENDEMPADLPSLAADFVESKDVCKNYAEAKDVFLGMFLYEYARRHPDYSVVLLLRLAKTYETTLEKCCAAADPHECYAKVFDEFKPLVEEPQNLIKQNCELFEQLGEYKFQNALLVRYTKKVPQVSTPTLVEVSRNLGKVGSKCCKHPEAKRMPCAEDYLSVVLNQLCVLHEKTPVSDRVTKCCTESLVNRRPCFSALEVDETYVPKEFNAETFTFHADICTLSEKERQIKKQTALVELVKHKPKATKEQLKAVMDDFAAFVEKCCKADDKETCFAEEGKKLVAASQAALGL

Chain of cytochrome P450 (CYP) 3A4 isoenzyme (P08684 whole entry): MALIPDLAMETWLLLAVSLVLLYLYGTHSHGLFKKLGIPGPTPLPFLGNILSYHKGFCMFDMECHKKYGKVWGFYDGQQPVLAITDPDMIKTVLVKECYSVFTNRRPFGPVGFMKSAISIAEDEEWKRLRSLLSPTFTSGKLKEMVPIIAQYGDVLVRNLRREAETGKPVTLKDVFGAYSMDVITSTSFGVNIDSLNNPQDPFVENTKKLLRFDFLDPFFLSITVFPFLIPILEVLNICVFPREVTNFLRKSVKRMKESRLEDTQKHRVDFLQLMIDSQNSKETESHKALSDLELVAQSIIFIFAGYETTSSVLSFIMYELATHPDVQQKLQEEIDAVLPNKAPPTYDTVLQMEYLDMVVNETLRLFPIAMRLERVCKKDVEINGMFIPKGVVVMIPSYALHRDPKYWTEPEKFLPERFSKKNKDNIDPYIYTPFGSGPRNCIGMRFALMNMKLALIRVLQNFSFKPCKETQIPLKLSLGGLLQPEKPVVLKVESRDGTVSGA

In the case of C=C1C[C@H]2[C@@H]3CCC4=CC(=O)CC[C@@H]4[C@H]3CC[C@]2(C)[C@@]1(OC(C)=O)C(C)=O [SA, 16-methylene-17α-acetoxy-19-nor-pregn-4-ene-3,20-dione], the micronucleus test result (mouse) is reported as “neither mutagenic nor elastogenic”, the total amount released [1] is reported as “approximately 41.3 mg” and the mutagenicity (Salmonella) is reported as “neither mutagenic nor elastogenic”. For the same compound, the “inhibition or induction of CYP enzymes” value (CYP enzymes) was “unlikely to inhibit or induce CYP enzymes”, the “bound to human serum proteins” value (human serum proteins) was “approximately 95%” and the tumor incidence (rats [2]) was “no drug-related increase in tumor incidence”. The “effects on ovulation or litter parameters after treatment” value (rats [3]; 7 weeks after cessation of treatment) was “no adverse effects on ovulation or resulting litter parameters”, the effect on fertility (rats [3]; subdermal implants, three months of treatment, approximately 25 times the human dose) was “suppressed fertility” and the Vd (clinical) was 19.6 L/kg. For the same compound, the half-life (clinical) was 270 min, the solubility (physchem) was 18.5 µg/mL (≈ 49.9 µM) and the “effect on the QTc interval” value (QTc interval) was “did not prolong the QTc interval to any clinically relevant extent”. The Cavg ([4]; Cycle 1, serum) was 191 (34) pg/mL, the Cavg ([4]; Cycle 3, serum) was 131 (29) pg/mL and the Cavg ([4]; Cycle 13, serum) was 94 (20) pg/mL. For the same compound, the AUC(0-t) ([4]; female, human, serum, Cycle 1, serum, read-out: AUC0-1day) was 15 ng·h/mL, the AUC(0-t) ([4]; female, human, serum, Cycle 1, serum, read-out: AUC0-21day) was 96.2 ng·h/mL and the Cmax ([4]; female, human, serum, Cycle 1, serum, read-out: Cmax) was 1.15 ng/mL. For the same compound, the AUC(0-t) ([4]; female, human, serum, Cycle 3, serum, read-out: AUC0-1day) was 5 ng·h/mL, the AUC(0-t) ([4]; female, human, serum, Cycle 3, serum, read-out: AUC0-21day) was 65.9 ng·h/mL and the Cmax ([4]; female, human, serum, Cycle 3, serum, read-out: Cmax) was 0.363 ng/mL. The AUC(0-t) ([4]; female, human, serum, Cycle 13, serum, read-out: AUC0-1day) was 3.9 ng·h/mL, the AUC(0-t) ([4]; female, human, serum, Cycle 13, serum, read-out: AUC0-21day) was 47.2 ng·h/mL and the Cmax ([4]; female, human, serum, Cycle 13, serum, read-out: Cmax) was 0.294 ng/mL. The Tmax ([4]; female, human, serum, product-use cycle 1, 3 and 13, read-out: median Tmax) was ~2 h, the metabolizing enzyme ([5]; human) was “metabolized by the cytochrome P450 (CYP) 3A4 isoenzyme” and the “binding affinity for sex hormone-binding globulin (SHBG)” value [6] was “negligible”. For the same compound, the “overall increase in exposure” value [7] was ≤ 32%, the “change in exposure from the vaginal system” value [7] was “no change” and the carcinogenic findings (mice; 10 mg/kg/day) was “did not result in carcinogenic findings”. For the same compound, the carcinogenic findings (mice; 30 mg/kg/day) was “increased incidence of adenocarcinoma and lobular hyperplasia in the breast” and the chromosomal aberration [8] was “neither mutagenic nor elastogenic”.
For C#C[C@]1(O)CC[C@H]2[C@@H]3CCc4cc(O)ccc4[C@H]3CC[C@@]21C [EE, 19-nor-17α-pregna-1,3,5(10)-trien-20-yne-3,17-diol], the “solubility in alkaline solution” value (Solubility) is given as “dissolves”, the total amount released [1] is given as “approximately 3.4 mg” and the “increase in systemic exposure of EE” value [9] is given as 20-25%. The half-life ([10]; human) was 15.1 (7.5) hours, the “effect on serum concentrations of SHBG” value [10] was “induces an increase” and the “bound to serum albumin” value (serum albumin) was 98.5%. For the same compound, the AUC0-1day ([4]; Cycle 1, serum) was 2.1 (0.7) ng * hr/mL, the AUC0-21day ([4]; Cycle 1, serum) was 22.2 (9.8) ng * hr/mL and the Cavg ([4]; Cycle 1, serum) was 44 (19) pg/mL. For the same compound, the Cmax ([4]; Cycle 1, serum) was 129 (39) pg/mL, the AUC0-1day ([4]; Cycle 3, serum) was 0.9 (0.4) ng * hr/mL and the AUC0-21day ([4]; Cycle 3, serum) was 14.7 (4.7) ng * hr/mL. The Cavg ([4]; Cycle 3, serum) was 29 (9) pg/mL, the Cmax ([4]; Cycle 3, serum) was 60 (32) pg/mL and the AUC0-1day ([4]; Cycle 13, serum) was 0.7 (0.3) ng * hr/mL. For the same compound, the AUC0-21day ([4]; Cycle 13, serum) was 9.6 (4.1) ng * hr/mL, the Cavg ([4]; Cycle 13, serum) was 19 (8) pg/mL and the Cmax ([4]; Cycle 13, serum) was 39 (16) pg/mL. For the same compound, the “median Tmax” value ([4]; product-use cycle 1, 3 and 13) was “about 2 hours”, the metabolizing enzyme [5] was “metabolized by the cytochrome P450 (CYP) 3A4 isoenzyme” and the “overall increase in exposure” value [7] was “up to 67%”. The “change in exposure from the vaginal system” value [7] was “no change”.
